Counter-ions that a name gives are not always drawn.
Each compound was assayed on activated T cells (CD4+ T cells derived from the mouse spleen) (assay: Incorporation of 3H-thymidine into activated T cells). Details: 3H-thymidine incorporation, mouse spleen CD4+ T cells activated with Dynabeads Mouse T-Activator CD3/CD28.
Format: cell-based, mouse (C57BL/6J)
Description: Effect of a test substance on incorporation of ^3H-thymidine was evaluated using T cells derived from the mouse spleen. The spleen was excised out from a C57BL/6J mouse euthanized, cut into pieces, ground on a cell strainer (40 μm mesh) and centrifuged to collect spleen cells. CD4+ T cells were isolated from the spleen cells by use of EasySep Mouse CD4+ T cell isolation kit (STEMCELL Technologies). CD4+ T cells were seeded to a 96-well round-bottom plate. Test substance dissolved in DMSO (dimethyl sulfoxide) or vehicle (DMSO) was added to culture medium and Dynabeads Mouse T-Activator CD3/CD28 (Thermo Fisher Scientific Inc.) was added. Culture was carried out at 37° C. in 5% CO2. After culture was carried out for 24 hours, ^3H-thymidine (PerkinElmer) diluted with the culture medium was added to individual wells. Culture was further carried out overnight at 37° C. in 5% CO2. In order to measure ^3H-thymidine incorporated in nuclei of the cells, the cells were collected on a filter plate UniFilter-96 GF/B (PerkinElmer) by use of a FilterMate Universal Harvester (PerkinElmer). After the filter plate was placed in a dryer and allowed to stand still for 2 hours or more, scintillation cocktail MicroScint-O (PerkinElmer) was added and radioactivity was measured by TopCount NXT (PerkinElmer). With the radioactivity of a group not containing a test substance being specified as 100% and the radioactivity of a group not activated being specified as 0%, relative radioactivity values of individual wells to which the test substance was added (proliferation rate, % of vehicle) were calculated. The values of “% of vehicle” were entered in analysis software Prism (Version 4.03, GraphPad Software). “Nonlinear regression Log (inhibitor) vs reaction variable tilt” was selected and sigmoid type-fitting (Bottom=0, Top=100) was carried out to calculate 50% inhibition concentration (IC50). The compound of the present invention suppresses ^3H-thymidine incorporation in activated T cells.

Row | SMILES | IC50
1 | N[C@@H](Cc1cccc(S(=O)(=O)N2CC(Oc3ccc(F)cc3)(c3ccc(Cl)cc3)C2)c1)C(=O)O [Example 54, (2S)-2-Amino-3-(3-{[3-(4-chlorophenyl)-3-(4-fluorophenoxy)azetidin-1-yl]sulfonyl}phenyl)propanoic acid monoformate] | 4.8 nM
2 | N[C@@H](Cc1cccc(S(=O)(=O)N2CC(Oc3ccc(-c4ccccc4)cc3)(c3ccccc3)C2)c1)C(=O)O [Example 2, (2S)-2-Amino-3-(3-{3-[([1,1′-biphenyl]-4-yl)oxy]-3-phenylazetidin-1-sulfonyl}phenyl)propanoic acid] | 12 nM
3 | CN(C)c1ccc(OC2(c3ccc(F)cc3)CN(S(=O)(=O)c3cccc(C[C@H](N)C(=O)O)c3)C2)cc1 [Example 21, (2S)-2-Amino-3-{3-[4-(dimethylamino)phenoxy]-3-(4-fluorophenyl)azetidin-1-yl]sulfonylphenyl}propanoic acid monohydrochloride] | 3.7 nM
4 | N[C@@H](Cc1cccc(S(=O)(=O)N2CC(Oc3ccc4[nH]ncc4c3)(c3ccccc3)C2)c1)C(=O)O [Example 90, (2S)-2-Amino-3-(3-{3-[(1H-indazol-5-yl)oxy]-3-phenylazetidin-1-sulfonyl}phenyl)propanoic acid] | 3.4 nM
5 | N[C@@H](Cc1cccc(S(=O)(=O)N2CC(Oc3cccc(-c4ccccc4)c3)(c3ccccc3)C2)c1)C(=O)O [Example 3, (2S)-2-Amino-3-(3-{3-[([1,1′-biphenyl]-3-yl)oxy]-3-phenylazetidin-1-sulfonyl)phenyl)propanoic acid] | 35 nM
6 | Cc1ccc(C2(Oc3ccc(C#N)cc3)CN(S(=O)(=O)c3cccc(C[C@H](N)C(=O)O)c3)C2)cc1 [Example 13, (2S)-2-Amino-3-{3-[3-(4-cyanophenoxy)-3-(4-methylphenyl)azetidine-1-sulfonyl]phenyl}propanoic acid monoformate] | 9.1 nM
7 | N[C@@H](Cc1cccc(S(=O)(=O)N2CC(Oc3ccc(F)cc3)(c3ccc(F)c(F)c3)C2)c1)C(=O)O [Example 37, (2S)-2-Amino-3-{3-[3-(3,4-difluorophenyl)-3-(4-fluorophenoxy)azetidin-1-sulfonyl]phenyl}propanoic acid monohydrochloride] | 24 nM
8 | N[C@@H](Cc1cccc(S(=O)(=O)N2CC(Oc3ccc4nccnc4c3)(c3ccccc3)C2)c1)C(=O)O [Example 6, (2S)-2-Amino-3-(3-{3-phenyl-3-[(quinoxalin-6-yl)oxy]azetidin-1-sulfonyl}phenyl)propanoic acid monohydrochloride] | 6.6 nM
9 | N[C@@H](Cc1cccc(S(=O)(=O)N2CC(Oc3ccc4cn[nH]c4c3)(c3ccccc3)C2)c1)C(=O)O [Example 10, (2S)-2-Amino-3-(3-{3-[(1H-indazol-6-yl)oxy]-3-phenylazetidine-1-sulfonyl}phenyl)propanoic acid monohydrochloride] | 10 nM
10 | N[C@@H](Cc1cccc(S(=O)(=O)N2CC(Oc3ccc(Cl)cc3)(c3ccccc3)C2)c1)C(=O)O [Example 87] | 19 nM
11 | Cc1ccc(OC2(c3ccc(F)cc3)CN(S(=O)(=O)c3cccc(C[C@H](N)C(=O)O)c3)C2)cn1 [Example 46, (2S)-2-Amino-3-[3-({3-(4-fluorophenyl)-3-[(6-methylpyridin-3-yl)oxy]azetidin-1-yl}sulfonyl)phenyl]propanoic acid dihydrochloride] | 31 nM
12 | NC(=O)c1ccc(OC2(c3ccc(F)cc3)CN(S(=O)(=O)c3cccc(C[C@H](N)C(=O)O)c3)C2)cc1 [Example 22, (2S)-2-Amino-3-{3-[3-(4-carbamoylphenoxy)-3-(4-fluorophenyl)azetidine-1-sulfonyl]phenyl}propanoic acid monotrifluoroacetate] | 4.8 nM
13 | NC(=O)c1ccc(OC2(c3ccc(F)c(F)c3)CN(S(=O)(=O)c3cccc(C[C@H](N)C(=O)O)c3)C2)cc1 [Example 39, (2S)-2-Amino-3-{3-[3-(4-carbamoylphenoxy)-3-(3,4-difluorophenyl)azetidin-1-sulfonyl]phenyl}propanoic acid monohydrochloride] | 14 nM
14 | N[C@@H](Cc1cccc(S(=O)(=O)N2CC(Oc3ccc(B(O)O)cc3)(c3ccccc3)C2)c1)C(=O)O [Example 52, (2S)-2-Amino-3-(3-{[3-(4-boronophenoxy)-3-phenylazetidin-1-yl]sulfonyl}phenyl)propanoic acid monoformate] | 6.6 nM
15 | NC(=O)c1ccc(OC2(c3ccc(Cl)cc3)CN(S(=O)(=O)c3cccc(C[C@H](N)C(=O)O)c3)C2)cc1 [Example 61, (2S)-2-Amino-3-(3-{[3-(4-carbamoylphenoxy)-3-(4-chlorophenyl)azetidin-1-yl]sulfonyl}phenyl)propanoic acid monohydrochloride] | 9.9 nM
16 | CC(=O)c1ccc(OC2(c3ccc(C)cc3)CN(S(=O)(=O)c3cccc(C[C@H](N)C(=O)O)c3)C2)cc1 [Example 14, (2S)-3-{3-[3-(4-Acetylphenoxy)-3-(4-methylphenyl)azetidine-1-sulfonyl]phenyl}-2-aminopropanoic acid monoformate] | 7.7 nM
17 | N[C@@H](Cc1cccc(S(=O)(=O)N2CC(Oc3ccc(F)c(Cl)c3)(c3ccccc3)C2)c1)C(=O)O [Example 17, (2S)-Amino-3-(3-{[3-(3-chloro-4-fluorophenoxy)-3-phenylazetidin-1-yl]sulfonyl}phenyl)propanoic acid] | 23 nM
18 | N[C@@H](Cc1cccc(S(=O)(=O)N2CC(Oc3ccccc3)(c3ccccc3)C2)c1)C(=O)O [Example 88, (2S)-2-Amino-3-(3-{[3-(3-phenoxy)-3-phenylazetidin-1-yl]sulfonyl}phenyl)propanoic acid] | 15 nM
19 | Cc1ccc(C2(Oc3cccc(F)c3)CN(S(=O)(=O)c3cccc(C[C@H](N)C(=O)O)c3)C2)cc1 [Example 59, (2S)-2-Amino-3-(3-{[3-(3-fluorophenoxy)-3-(4-methylphenyl)azetidin-1-yl]sulfonyl}phenyl)propanoic acid monoformate] | 18 nM
20 | CC(=O)c1ccc(OC2(c3ccc(F)cn3)CN(S(=O)(=O)c3cccc(C[C@H](N)C(=O)O)c3)C2)cc1 [Example 60, (2S)-3-(3-{[3-(4-acetylphenoxy)-3-(5-fluoropyridin-2-yl)azetidin-1-yl]sulfonyl}phenyl)-2-aminopropanoic acid dihydrochloride] | 14 nM
21 | Cc1ccc(OC2(c3ccccc3)CN(S(=O)(=O)c3cccc(C[C@H](N)C(=O)O)c3)C2)cc1 [Example 16, (2S)-Amino-3-(3-{[3-phenyl-3-(p-tolyloxy)azetidin-1-yl]sulfonyl)phenyl)propanoic acid] | 10 nM
22 | Cc1ccc(OC2(c3ccc(F)cn3)CN(S(=O)(=O)c3cccc(C[C@H](N)C(=O)O)c3)C2)cc1 [Example 50, (2S)-2-Amino-3-(3-{[3-(5-fluoropyridin-2-yl)-3-(4-methylphenoxy)azetidin-1-yl]sulfonyl}phenyl)propanoic acid dihydrochloride] | 24 nM
23 | CC(=O)c1ccc(OC2(c3ccc(Cl)cc3)CN(S(=O)(=O)c3cccc(C[C@H](N)C(=O)O)c3)C2)cc1 [Example 9, (2S)-3-{3-[3-(4-Acetylphenoxy)-3-(4-chlorophenyl)azetidin-1yl]sulfonylphenyl}-2-aminopropanoic acid monohydrochloride] | 7.6 nM

From patent publication US20230097700A1, “AZETIDINE SULFONAMIDE COMPOUND” (DAIICHI SANKYO COMPANY, LIMITED, priority 2019, published 2023)
